The numbers were not newly measured in US20050153276A1 (priority 2001, published 2005), which cites them from elsewhere.

In the series the test system is human hepatocyte and neuroblastoma cells. The following applies: cited from earlier work.

On to `CCOP(=O)(OCC)Oc1ccc([N+](=O)[O-])cc1` [paraoxon], for which the “effect on cell metabolism (acidification rate)” value was “opposite effects on hepatocyte and neuroblastoma cell metabolism”.

As to `CCOP(=S)(OCC)Oc1ccc([N+](=O)[O-])cc1` [parathion], the “effect on cell metabolism (acidification rate)” value is “opposite effects on hepatocyte and neuroblastoma cell metabolism”.
